Experiment: xn = mol fraction of the nth substance listed
Conditions: 100 kPa, Liquid; for viscosity: Falling or rolling sphere viscometry; for mass density: Vibrating tube method

CC(C)C1CCCCC1 [(1-methylethyl)cyclohexane] + c1ccc2c(c1)CCCC2
Conditions	mass density [kg/m3]	viscosity [mPa·s]
293.15 K, x2 = 0	802.14	1.093
293.15 K, x2 = 0.0995	816.67	1.129
293.15 K, x2 = 0.1995	831.75	1.195
293.15 K, x2 = 0.299	847.23	1.258
293.15 K, x2 = 0.4004	863.44	1.334
293.15 K, x2 = 0.5006	879.87	1.436
293.15 K, x2 = 0.5995	896.5	1.543
293.15 K, x2 = 0.7015	914.1	1.671
293.15 K, x2 = 0.7991	931.39	1.823
293.15 K, x2 = 0.9006	949.99	2.008
298.15 K, x2 = 0	798.24	1.016
298.15 K, x2 = 0.0995	812.77	1.053
298.15 K, x2 = 0.1995	827.85	1.108
298.15 K, x2 = 0.299	843.32	1.165
298.15 K, x2 = 0.4004	859.53	1.233
298.15 K, x2 = 0.5006	875.96	1.324
298.15 K, x2 = 0.5995	892.57	1.416
298.15 K, x2 = 0.7015	910.16	1.531
298.15 K, x2 = 0.7991	927.44	1.662
298.15 K, x2 = 0.9006	946.04	1.824
303.15 K, x2 = 0	794.34	0.947
303.15 K, x2 = 0.0995	808.86	0.98
303.15 K, x2 = 0.1995	823.93	1.03
303.15 K, x2 = 0.299	839.4	1.08
303.15 K, x2 = 0.4004	855.61	1.143
303.15 K, x2 = 0.5006	872.03	1.225
303.15 K, x2 = 0.5995	888.63	1.305
303.15 K, x2 = 0.7015	906.22	1.407
303.15 K, x2 = 0.7991	923.49	1.521
303.15 K, x2 = 0.9006	942.08	1.667
308.15 K, x2 = 0	790.43	0.886
308.15 K, x2 = 0.0995	804.95	0.916
308.15 K, x2 = 0.1995	820.02	0.961
308.15 K, x2 = 0.299	835.48	1.007
308.15 K, x2 = 0.4004	851.68	1.064
308.15 K, x2 = 0.5006	868.1	1.137
308.15 K, x2 = 0.5995	884.69	1.208
308.15 K, x2 = 0.7015	902.28	1.3
308.15 K, x2 = 0.7991	919.54	1.404
308.15 K, x2 = 0.9006	938.12	1.532
313.15 K, x2 = 0	786.51	0.831
313.15 K, x2 = 0.0995	801.03	0.859
313.15 K, x2 = 0.1995	816.1	0.9
313.15 K, x2 = 0.299	831.55	0.942
313.15 K, x2 = 0.4004	847.75	0.994
313.15 K, x2 = 0.5006	864.17	1.06
313.15 K, x2 = 0.5995	880.76	1.124
313.15 K, x2 = 0.7015	898.34	1.207
313.15 K, x2 = 0.7991	915.59	1.3
313.15 K, x2 = 0.9006	934.17	1.413
318.15 K, x2 = 0	782.59	0.782
318.15 K, x2 = 0.0995	797.11	0.798
318.15 K, x2 = 0.1995	812.17	0.837
318.15 K, x2 = 0.299	827.63	0.876
318.15 K, x2 = 0.4004	843.82	0.925
318.15 K, x2 = 0.5006	860.23	0.986
318.15 K, x2 = 0.5995	876.81	1.045
318.15 K, x2 = 0.7015	894.39	1.121
318.15 K, x2 = 0.7991	911.63	1.206
318.15 K, x2 = 0.9006	930.21	1.309
323.15 K, x2 = 0	778.66	0.738
323.15 K, x2 = 0.0995	793.18	0.761
323.15 K, x2 = 0.1995	808.24	0.795
323.15 K, x2 = 0.299	823.7	0.831
323.15 K, x2 = 0.4004	839.88	0.875
323.15 K, x2 = 0.5006	856.3	0.93
323.15 K, x2 = 0.5995	872.87	0.982
323.15 K, x2 = 0.7015	890.45	1.05
323.15 K, x2 = 0.7991	907.69	1.123
323.15 K, x2 = 0.9006	926.26	1.219
328.15 K, x2 = 0	774.72	0.698
328.15 K, x2 = 0.0995	789.24	0.72
328.15 K, x2 = 0.1995	804.3	0.751
328.15 K, x2 = 0.299	819.76	0.784
328.15 K, x2 = 0.4004	835.94	0.825
328.15 K, x2 = 0.5006	852.35	0.875
328.15 K, x2 = 0.5995	868.92	0.922
328.15 K, x2 = 0.7015	886.5	0.985
328.15 K, x2 = 0.7991	903.74	1.051
328.15 K, x2 = 0.9006	922.3	1.137
333.15 K, x2 = 0	770.77	0.661
333.15 K, x2 = 0.0995	785.29	0.681
333.15 K, x2 = 0.1995	800.35	0.711
333.15 K, x2 = 0.299	815.81	0.741
333.15 K, x2 = 0.4004	831.99	0.779
333.15 K, x2 = 0.5006	848.4	0.825
333.15 K, x2 = 0.5995	864.97	0.869
333.15 K, x2 = 0.7015	882.54	0.926
333.15 K, x2 = 0.7991	899.78	0.986
333.15 K, x2 = 0.9006	918.35	1.065
338.15 K, x2 = 0	766.81	0.628
338.15 K, x2 = 0.0995	781.34	0.647
338.15 K, x2 = 0.1995	796.4	0.674
338.15 K, x2 = 0.299	811.85	0.703
338.15 K, x2 = 0.4004	828.03	0.737
338.15 K, x2 = 0.5006	844.44	0.78
338.15 K, x2 = 0.5995	861.01	0.82
338.15 K, x2 = 0.7015	878.57	0.873
338.15 K, x2 = 0.7991	895.81	0.928
338.15 K, x2 = 0.9006	914.37	0.999
343.15 K, x2 = 0	762.84	0.598
343.15 K, x2 = 0.0995	777.38	0.616
343.15 K, x2 = 0.1995	792.44	0.641
343.15 K, x2 = 0.299	807.89	0.668
343.15 K, x2 = 0.4004	824.07	0.7
343.15 K, x2 = 0.5006	840.47	0.74
343.15 K, x2 = 0.5995	857.04	0.776
343.15 K, x2 = 0.7015	874.6	0.825
343.15 K, x2 = 0.7991	891.84	0.875
343.15 K, x2 = 0.9006	910.39	0.942
